According to patent US6566359B1, “2,4,6-trimethyl-1,4-dihydro-pyridine-3,5-dicarboxylic acid esters as neuroprotective drugs” (Board of Supervisors of Louisiana State University and …, priority 2002, dated 2003):
“And” between values parts separate entries of the source, which are not always exact repeats. Identical values can stand only once.

Tests used:
COX-2 mRNA = COX-2 mRNA expression after cryogenic injury (vasogenic cerebral edema), Northern blot; type: in vivo, Sprague-Dawley rats; details: rat
Procedure: Brain COX-2 gene expression is known to be enhanced as a result of injury as well as by seizures (Marcheselli and Bazan, 1996), and PAF receptors are involved in COX-2 expression (Bazan et al, 1994). To further test the LAU-0900 series compounds as PAF antagonists, the compounds were tested in an in vivo model for the potential blocking of injury-induced COX-2 induction. Adult Sprague-Dawley rats, 175 to 250 g body weight, were purchased from a commercial breeder (Charles River Laboratories, Wilmington, Mass.). One group of four rats received an intra-cerebroventricular injection of LAU-0903 (10 mg/kg in DMSO as a vehicle), 15 min before the generation of cerebral edema. Another group of four rats received an intraperitoneal injection of desxmethasone every 8 hr for a period of 24 hr prior to injury. Animals were immobilized by ether anesthesia, and vasogenic cerebral edema was generated by the application of a liquid nitrogen-cooled probe for 1 min on the parietal region of the skull. The rats were allowed to recover for either 2 or 6 hr before being decapitated to sample the brain. Total brain tissues were obtained, and total-RNA was extracted. The RNA was then assayed by Northern blot analysis for COX-2 mRNA. […] Autoradiography or phosphorimage quantification was performed.

[1] = target: intracellular type PAF receptor (rat brain microsomal preparations) (Rattus norvegicus, UniProt P46002); test: Competition for 3H-PAF binding to rat brain cortex microsomal membranes; details: rat brain cortex microsomal preparation
intracellular type PAF receptor (rat brain microsomal preparations), sequence (P46002 whole entry): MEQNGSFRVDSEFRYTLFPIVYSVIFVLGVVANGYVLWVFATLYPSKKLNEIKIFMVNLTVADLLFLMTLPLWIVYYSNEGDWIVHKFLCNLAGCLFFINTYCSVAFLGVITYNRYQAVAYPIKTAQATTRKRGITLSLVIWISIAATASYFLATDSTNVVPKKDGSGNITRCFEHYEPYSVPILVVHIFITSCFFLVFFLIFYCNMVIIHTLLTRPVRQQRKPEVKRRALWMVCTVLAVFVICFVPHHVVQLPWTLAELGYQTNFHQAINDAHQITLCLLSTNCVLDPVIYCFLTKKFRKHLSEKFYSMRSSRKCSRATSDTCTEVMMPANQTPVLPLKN
Procedure: (§1) Binding studies were performed on subcellular fractions of tissues obtained from rat brain cortex, according to procedures described in V. Marcheselli et al., “Distinct platelet-activating factor binding sites in synaptic endings and in intracellular membranes of rat cerebral cortex,” J. biol. Chem., vol. 265, pp. 9140-9145 (1990). Freshly dissected brain tissues were homogenized in ice-cold buffer (50 mM Tris-HCl, 2 mM EGTA, 5 mM PMSF, 250 mM sucrose, 7.4 pH). Subcellular fractions were obtained by differential centrifugation. The microsomal fraction was sedimented after 100,000×g for 1 hour centrifugation. In addition, three cell lines from Chinese hamster ovary (CHO) with varying expression of PAF receptors, CHO-A, CHO-B, and CHO-C cells (from Dr. Takao Shiizu, University of Tokyo, Tokyo, Japan) were cultured to the fourth-passage cells. These cells were cultured to confluence, then detached from their culturing flasks, and pelleted by rapid centrifugation (3,000 rpm, 10 min). Cellular pellets were homogenized in ice-cold buffer as described above. Freshly obtained microsomal fractions or CHO cellular homogenates were utilized for saturation, displacement, and competition studies using ^3H-PAF as the hot ligand, unlabeled-PAF to detect non-specific binding, and a LAU-0900 series compound to displace by competition ^3H-PAF bound to a receptor.

[2] = target: T1, PAF receptor in CHO-A cells (moderately exp PAF-R) (Cavia porcellus, UniProt P21556); test: Competition for 3H-PAF binding to CHO-A cell homogenates
T1 construct: expressed in transfected cells; host or cells: Chinese hamster ovary cells: CHO-B (high expression) and CHO-A (mild expression), used as cell homogenates
T1 sequence (P21556 whole entry): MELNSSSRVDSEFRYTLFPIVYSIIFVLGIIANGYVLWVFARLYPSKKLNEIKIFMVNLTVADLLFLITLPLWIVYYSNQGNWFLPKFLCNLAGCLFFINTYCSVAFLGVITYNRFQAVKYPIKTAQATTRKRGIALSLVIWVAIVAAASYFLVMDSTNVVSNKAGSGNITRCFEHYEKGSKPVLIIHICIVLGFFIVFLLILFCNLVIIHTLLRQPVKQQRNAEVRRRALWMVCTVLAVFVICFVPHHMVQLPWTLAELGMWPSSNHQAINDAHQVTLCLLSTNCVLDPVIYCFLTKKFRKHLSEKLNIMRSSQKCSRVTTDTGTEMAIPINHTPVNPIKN
Procedure: Binding studies were performed on subcellular fractions of tissues obtained from rat brain cortex, according to procedures described in V. Marcheselli et al., “Distinct platelet-activating factor binding sites in synaptic endings and in intracellular membranes of rat cerebral cortex,” J. biol. Chem., vol. 265, pp. 9140-9145 (1990). Freshly dissected brain tissues were homogenized in ice-cold buffer (50 mM Tris-HCl, 2 mM EGTA, 5 mM PMSF, 250 mM sucrose, 7.4 pH). Subcellular fractions were obtained by differential centrifugation. The microsomal fraction was sedimented after 100,000×g for 1 hour centrifugation. In addition, three cell lines from Chinese hamster ovary (CHO) with varying expression of PAF receptors, CHO-A, CHO-B, and CHO-C cells (from Dr. Takao Shiizu, University of Tokyo, Tokyo, Japan) were cultured to the fourth-passage cells. These cells were cultured to confluence, then detached from their culturing flasks, and pelleted by rapid centrifugation (3,000 rpm, 10 min). Cellular pellets were homogenized in ice-cold buffer as described above. Freshly obtained microsomal fractions or CHO cellular homogenates were utilized for saturation, displacement, and competition studies using ^3H-PAF as the hot ligand, unlabeled-PAF to detect non-specific binding, and a LAU-0900 series compound to displace by competition ^3H-PAF bound to a receptor. […]

[3] = target: T2, cell-surface-type PAF receptor over-expressed in CHO-B cells (Cavia porcellus, UniProt P21556); test: Competition for 3H-PAF binding to CHO-B cell homogenates
T2 construct: expressed in transfected cells; host or cells: Chinese hamster ovary cells: CHO-B (high expression) and CHO-A (mild expression), used as cell homogenates
T2 sequence (P21556 whole entry): as above
Procedure: as §1
(§2) See B. Liu et al., “Implication of protein kinase C alpha in PAF-stimulated phospholipase D Activation in Chinese hamster ovary (CHO) cells expressing PAF receptor,” Biochem. Biophys. Res. Commun., vol.214, pp.418-423 (1995). […] Both the constants of inhibition (KI) and 50% of inhibitory activity (IC50) were significant at a low concentration of LAU-0903.

human COX-2 promoter [4] = test: IL-1β-induced COX-2 promoter-luciferase transcription in CV-1 cells; type: cell-based; details: 100 nM compound, 10 nM IL-1β
Procedure: (§3) To test the ability of LAU-0900 series compounds to inhibit COX-2 expression, a kidney cell line was transiently transfected with the 830-base-pair human COX-2 promoter construct (proximal to the transcription start site) fused to the luciferase gene as a reporter as described below.
(§4) Transfection of CV-1 cells with human COX-2promoterfused with LUC: C V-1 Cells (African green monkey kidney cell line, ATCC # CCL-17) were grown in DMEM-F12 (GIBCO-BRL, Rockville, Md.) supplemented with 10% FBS (fetal bovine serum) in 6-well plates. At 80% confluence, the cells were transfected with 10 μg human COX-2 promoter-LUC construct (containing 830 base pairs of the human COX-2 promoter (donated by Dr. Stephen Prescot, Huntsman Cancer Institute, Salt Lake City, Utah) using a liposomal transfection reagent (DOTAP, Roche Diagnostics, Gmbh, Mannheim, Germany). Promoterless β-galactosidase construct (Promega, Madison, Wis.) was co-transfected to assess transfection efficiency. Three hours after transfection at 37° C., the medium was removed, and the cells were washed with phonsphate-buffered saline solution, pH 7.2 (PBS; Gibco-BRL, Rockville Md. The plates were further incubated at 37° C. in complete medium DMEM-F12 with 10% FBS for about 8-10 hr. Before the addition of the inducers of COX-2, PAF (100 nM) or IL-1β (10 ng/ml), the CV-1-transfected cells were serum-starved for 8 hr at 37° C. After the addition of the inducers, the cells were incubated for 8-10 hr at 37° C. Then the medium was removed, the cells were washed with PBS, harvested, and frozen at −80° C. until used for assays.
(§5) To test the effectiveness of the LAU-0900 series compounds, the transfected cells were treated for 1 hr with 100 nM of various LAU-0900 series compounds before the addition of the inducers (either PAF or IL-1β, and the LAU-0900 compound remained in the medium throughout the incubation period.
(§6) Luciferase assay of transfected CV-1 cells: Frozen cells were homogenized in 300 μl luciferase assay buffer (“ALL”, Analytical Luminescence Laboratory, San Diego, Calif.), and cellular debris was collected as a pellet by centrifugation at 2800×g for 20 min at 4° C. Supernatants (20-30 μl) were normalized to 1 μg/ml of total protein content, and were mixed with 70-80 μl ALL buffer. Reactions were initiated by injection of 100 μl of 1 mM luciferin (Sigma Chemical Co., St. Louis, Mo.). The relative light units were determined by using an ALL luminometer that recorded over 20-second intervals.

human COX-2 promoter [5] = test: PAF-induced COX-2 promoter-luciferase transcription in CV-1 cells; type: cell-based; details: 100 nM compound, 100 nM PAF
Procedure: as §3, §4, §5, §6

[6] = tested on: CHO-C cells (do not exp PAF-R); test: Competition for 3H-PAF binding to CHO-C cell homogenates
Procedure: as §1, §2

[7] = Evans Blue accumulation in brain cortex in vasogenic cerebral edema; type: in vivo, rat; details: LAU-0903 30 μg/kg intra-ventricularly 15 min before injury; dexamethasone 6.2 μg/kg i.p. every 8 hr for 24 hr; 2 hr and 12 hr after injury
[8] = MCA-O with 21 days reperfusion, Cresil-Violet histology; type: in vivo, C57-bl/6 mice; details: 30 mg/kg i.p. once 1 hr after onset of reperfusion
Procedure: In a second group of experiments, C57-bl/6 mice were treated with either a sham procedure, or with 1 hr with MCA-O followed by a reperfusion period of 21 days. Cresil-violet staining was used to assess brain damage in brain slices obtained as above. […] (Data not shown.). […] (Data not shown).
In a third set of experiments, the MCA-O treated mice were injected once with the LAU-0900 series compounds (LAU-0901, LAU-0904, and LAU-0911; at 30 mg/kg) or vehicle 1 hr after the onset of reperfusion. The LAU-0900 compounds were solubilized in 45% 2-hydroxypropyl-β-cyclodextrine (Sigma Chemical Co.), and delivered intraperitoneally. The mice were reperfused for 21 days, and killed. Coronal sections of mouse brains were processed for histology, and stained with Cresil-Violet. Sections from individual animals were analyzed, with pictures of the right side (infarcted) of the brain compared to the left side, which show almost no damage.
(Data not shown). […] Almost normal morphology was found in the brains of the LAU-0900-treated animals, indicating a high degree of protection. (Data not shown), even though administered 1 hr after the initiation of reperfusion.

[9] = Middle cerebral artery occlusion (MCA-O) stroke model, infarct volume by TTC; type: in vivo, C57BL/6 mice; details: 30 mg/kg 1 hr after reperfusion following 1 hr of MCA-O

KI ([2]; CHO-A homogenates) | IC50 ([2]; CHO-A homogenates (moderately express PAF-R)) | Significance of 3H-PAF displacement ([3]; CHO-B cell homogenates) | IC50 ([3]; CHO-B homogenates (heavily overexpress PAF-R)) | Compound | Inhibition of cryogenically induced COX-2 mRNA (COX-2 mRNA; 10 mg/kg intra-cerebroventricular 15 min before injury) | Duration of COX-2 mRNA inhibition after a single injection (COX-2 mRNA; 10 mg/kg intra-cerebroventricular) | Competitive activity at 3H-PAF binding sites (curve profile) [1] | Inhibition of COX-2 transcription induced by IL-1β (human COX-2 promoter [4]) | Inhibition of COX-2 transcription induced by PAF (human COX-2 promoter [5]) | KI ([6]; CHO-C homogenates) | IC50 ([6]; CHO-C homogenates (do not express PAF-R)) | Effect on accumulation of Evans Blue in brain cortex [7] | Protection from brain damage (Cresil-Violet histology) [8] | Reduction of infarcted volume [9]
No displacement | No displacement | significant displacement | ~53.8 pM and 53.8 pM | COC(=O)C1=C(C)NC(C)=C(C(=O)OCCCSc2ccc(-n3ccnc3)cc2)C1C (stereo not shown) [LAU-0903, 2,4,6-Trimethyl-1,4-dihydro-pyridine-3,5-dicarboxylic acid 5-[3-(imidazol-1-yl-phenylsulphanyl)]-propyl-1-ester 3-methyl ester] | more than 50% | up to 6 hours | competitive activity at both binding sites | inhibited | inhibited | No displacement | No displacement | protective effect | – | –
– | – | – | – | COC(=O)C1=C(C)NC(C)=C(C(=O)OCCCOc2cc(OC)c(OC)c(OC)c2)C1C (stereo not shown) [LAU-0911, 2,4,6-Trimethyl-1,4-dihydro-pyridine-3,5-dicarboxylic acid 5-(3,4,5-trimethoxyphenoxy)-propyl-1-ester 3-methyl ester] | – | – | – | inhibited | inhibited | – | – | – | significant protection | 40%
